Measured values from ChEMBL document CHEMBL1136837, “Unified QSAR approach to antimicrobials. 4. Multi-target QSAR modeling and comparative multi-distance study of the giant components of antiviral drug-drug complex networks” (Bioorg Med Chem, 2009).
Starred links: 1 amine or outer side, 2 acyl side, 3 side chain; linkers in the order of their positions; H or OH if unused. Non-standard residues stand in square brackets, D forms with d. Residues, ends and D or L forms follow the SMILES beside them. *: point of attachment. Hyp(2-Ph-quinolin-4-yl) = O=C(O)[C@@H]1C[C@@H](Oc2cc(-c3ccccc3)nc3ccccc23)CN1; Hyp(quinolin-4-yl) = O=C(O)[C@@H]1C[C@@H](Oc2ccnc3ccccc23)CN1; Acca(2-Et,1R,2R) = CC[C@@H]1C[C@]1(N)C(=O)O; Dip = N[C@H](C(=O)O)C(c1ccccc1)c1ccccc1; Hyp = O=C(O)[C@@H]1C[C@@H](O)CN1; X8 = CCCN(N*)C(=O)NN(C)c1ccccc1; azaNva = CCCN(N[*:1])C(=O)[*:2]; Cha = N[C@@H](CC1CCCCC1)C(=O)O; Chg = N[C@H](C(=O)O)C1CCCCC1; X3 = C[C@H](N*)c1ccc(Br)cc1; X5 = c1ccc2c(c1)CC[C@@H]2N*; X7 = C[C@H](N*)C1CCCCC1; Ac3c = NC1(C(=O)O)CC1; X1 = Clc1ccccc1CCN*; Bn = c1ccc(C*)cc1

Each molecule was assayed on Human immunodeficiency virus 1 (assay: Antiviral activity against HIV1). Details: not given.
Type: functional, organism-based

Structure (SMILES)	IC50 [nM]
O=C(O)/C(O)=C/C(=O)c1cc(OCc2ccccc2)cc(OCc2ccccc2)c1	480
Cc1cn([C@@H]2S[C@H](CO)C=C2F)c(=O)nc1O	92300
Nc1nc(O)c2ncn([C@@H]3C=C(F)[C@H](CO)O3)c2n1	38500
C#C[C@@]1(CO)C=C[C@H](n2cc(C)c(=O)[nH]c2=O)O1 [CENSAVUDINE]	250
CC(c1cc(=O)[nH]c(SC2CCCC2)n1)c1c(F)cccc1F (stereo not given)	30
O=Cc1cccc2c1nc(-c1c(F)cccc1F)n2Cc1c(F)cccc1F	100
COc1ccc(CC2CCN(C3(C)CCN(C(=O)c4c(C)cccc4C)CC3)CC2)cc1	26
Nc1ncnc2c1ncn2C1C=CC(OCP(=O)(O)OP(=O)(O)OP(=O)(O)O)C1 (stereo not given)	200
Nc1ccn([C@H]2O[C@H](CO)C=C2F)c(=O)n1	100000
C=C(C)[C@@H]1CC[C@]2(C(=O)NCCCCCCCC(=O)N[C@@H](CC(C)C)C(=O)O)CC[C@]3(C)[C@H](CC[C@@H]4[C@@]5(C)CC[C@H](O)C(C)(C)[C@@H]5CC[C@]43C)[C@@H]12	1380
NNC(=O)c1cc2ccccc2n1S(=O)(=O)c1ccccc1	200000
Cc1cccc(S(=O)(=O)c2c(C(N)=O)[nH]c3ccc(Cl)cc23)c1	1
C[C@H]1O[C@@H](n2c(Cl)c(C=O)c3cc(Cl)c(Cl)cc32)[C@H](O)[C@@H]1O	20000
Cc1ncc([N+](=O)[O-])n1CCOC(c1ccccc1)c1cccc(-n2cccc2)c1 (stereo not given)	14000
O=C(O)/C(O)=C/C(=O)c1c[nH]c2ccc(Cl)cc12	520
CC(=O)NC1=CC(=O)c2ccc(-c3[nH]c(C(=O)O)cc4c5ccccc5nc3-4)nc2C1=O	13300
O=C(/C=C(\O)c1nnn[nH]1)c1c[nH]c2ccc(F)cc12	1800
NNC(=O)c1[nH]c2ccc(Cl)cc2c1Sc1cc(Cl)ccc1N	13000
Fc1cccc(F)c1Cn1c(-c2c(F)cccc2F)nc2c(Cl)cccc21	400
O=C(O)C(=O)CC(=O)c1cccc(Cc2ccccc2)c1	100
Nc1nc(O)c2ncn([C@H]3CC(F)(F)[C@H](CO)O3)c2n1	100000
O=C1CSC(c2c(F)cccc2Cl)N1c1ccc(Cl)cn1 (stereo not given)	2130
N#Cc1c(Cl)n([C@@H]2O[C@H](CF)[C@@H](O)[C@H]2O)c2cc(Cl)c(Cl)cc12	40000
NNC(=O)c1[nH]c2ccc(Cl)cc2c1Sc1ccc(Cl)cc1	10000
Nc1nc(O)c2ncn([C@H]3S[C@@H](CO)C=C3F)c2n1	43500
Cc1c(C(C)c2c(F)cccc2F)nc(NC2CCCC2)[nH]c1=O (stereo not given)	35
Cc1cn([C@H]2C=C[C@@](C#CCl)(CO)O2)c(=O)[nH]c1=O	100000
CCOC(=O)c1[nH]c2ccccc2c1S(=O)(=O)c1cc(Cl)ccc1N	200000

The molecules below were run on Hepatitis C virus (assay: Antiviral activity against Hepatitis C virus). Details: not given.
Type: functional, organism-based, Hepacivirus hominis

Structure (SMILES)	IC50 [nM]
O=C(O)[C@H](Cc1ccccc1)N(Cc1ccc(-c2nccs2)cc1)C(=O)c1ccc(Cl)cc1Cl (stereo in doubt; form 2)	5700

Same assay, conditions: Hepatitis C virus

Structure (SMILES)	IC50 [nM]
CC(C)(C)C(=O)CC(=O)C(=O)O	50000
CCC[C@@]1(CC(=O)O)OCCc2c1[nH]c1c(Cl)ccc(CC)c21	15000
COc1ccc2c(O[C@@H]3C[C@H]4C(=O)N[C@]5(C(=O)O)C[C@H]5/C=C\CCCCC[C@H](NC(=O)OC(C)(C)C)C(=O)N4C3)cc(-n3ccc(C)n3)nc2c1	3
CCCC1(CC(=O)O)OCCc2c1[nH]c1c(C)cc(F)c(C#N)c21 (stereo not given)	120
Cc1cccc(CN(C(=O)c2ccc(Cl)cc2Cl)[C@@H](Cc2ccccc2)C(=O)O)c1	1800
CCCN(NC(=O)[C@@H]1C[C@@H](OCc2ccccc2)CN1C(=O)[C@@H](NC(=O)[C@@H](NC(=O)[C@@H](CCC(=O)O)NC(=O)[C@H](CC(=O)O)NC(C)=O)[C@@H](C)CC)C(C)C)C(=O)N[C@@H](C)C1CCCCC1 (Ac-D[dE]IV[Hyp](Bn)[azaNva]-X7)	420
O=C(O)[C@H](Cc1ccccc1)N(Cc1cccc(F)c1)C(=O)c1ccc(Cl)cc1Cl	3200
CCCN(NC(=O)[C@@H]1C[C@@H](OCc2ccccc2)CN1C(=O)[C@@H](NC(=O)[C@@H](NC(=O)[C@@H](CCC(=O)O)NC(=O)[C@H](CC(=O)O)NC(C)=O)[C@@H](C)CC)C(C)C)C(=O)N[C@H]1CCc2ccccc21 (Ac-D[dE]IV[Hyp](Bn)[azaNva]-X5)	100
O=C(O)C(=O)CC(=O)c1ccccc1	5700
CC(=O)N[C@H](C(=O)N[C@H](C(=O)N1C[C@H](Oc2cccc(-c3cccc([N+](=O)[O-])c3)c2)C[C@H]1C(=O)NC1(C(=O)O)CC1)C(C)C)C1CCCCC1	4000
N#Cc1ccc(Br)cc1COc1cccc(C(=O)/C=C(\O)C(=O)O)c1	100
N#Cc1ccccc1COc1cccc(C(=O)/C=C(\O)C(=O)O)c1	230
Cc1ccc(C(=O)CC(=O)C(=O)O)cc1	50000
COC(=O)c1ccccc1CCNC(=O)[C@H](CS)NC(=O)[C@H](CC(C)C)NC(=O)[C@H](CCC(=O)O)NC(=O)OCC(C)C	54000
CCCN(NC(=O)[C@@H]1C[C@@H](OCc2ccccc2)CN1C(=O)[C@@H](NC(=O)[C@@H](NC(=O)[C@@H](CCC(=O)O)NC(=O)[C@H](CC(=O)O)NC(C)=O)[C@@H](C)CC)C(C)C)C(=O)NN(C)c1ccccc1 (Ac-D[dE]IV[Hyp](Bn)-X8)	480
CC(=O)CC(=O)C(=O)O	50000
CC(=O)N[C@H](C(=O)N[C@H](C(=O)N1C[C@H](OCc2cccc3ccccc23)C[C@H]1C(=O)N[C@@]1(C(=O)O)C[C@@H]1C)C(C)C)C1CCCCC1	180000
O=C(O)[C@H](Cc1ccccc1)N(Cc1ccc(-c2cc3ccccc3o2)s1)C(=O)c1ccc(Cl)cc1Cl	8600
COC(=O)C(=O)CC(=O)c1ccccc1	50000
O=C(O)C(=O)CC(=O)c1cccc(NS(=O)(=O)c2ccccc2)c1	16000
COc1ccc2c(O[C@@H]3C[C@H]4C(=O)N[C@]5(C(=O)O)C[C@H]5/C=C\CCCCC[C@H](NC(=O)OC5CCC5)C(=O)N4C3)cc(-c3csc(NC(C)=O)n3)nc2c1	2.6
CC(C)(C)c1ccc(C(=O)CC(=O)C(=O)O)cc1	50000
CCC[C@]1(CC(=O)O)OCCc2c1[nH]c1c(C)cc(F)c(C#N)c21	80

Structure (SMILES)	IC50 [nM]
CC(=O)N[C@H](C(=O)N[C@H](C(=O)N1C[C@H](Oc2ccnc3ccccc23)C[C@H]1C(=O)NC1(C(=O)O)CC1)C(C)C)C1CCCCC1 (Ac-[Chg]V[Hyp(quinolin-4-yl)][Ac3c]-OH)	2200
CC(=O)N[C@H](C(=O)N[C@H](C(=O)N1C[C@H](Oc2cc(-c3ccccc3)nc3ccccc23)C[C@H]1C(=O)NC1(C(=O)O)CC1)C(C)C)C1CCCCC1 (Ac-[Chg]V[Hyp(2-Ph-quinolin-4-yl)][Ac3c]-OH)	370
CC(=O)N[C@H](C(=O)N[C@H](C(=O)N1C[C@H](OCc2cccc3ccccc23)C[C@H]1C(=O)N[C@@]1(C(=O)O)C[C@@H]1Cc1ccccc1)C(C)C)C1CCCCC1	81000
COc1ccc2c(O[C@@H]3C[C@H]4C(=O)N[C@]5(C(=O)O)C[C@H]5/C=C\CCCCC[C@H](NC(=O)OC(C)(C)C)C(=O)N4C3)cc(-n3cccc3)nc2c1	5.1
COC(=O)c1cccc(CCNC(=O)[C@H](CS)NC(=O)[C@H](CC(C)C)NC(=O)[C@H](CCC(=O)O)NC(=O)OCC(C)C)c1	25000
CC(C)COC(=O)N[C@@H](CCC(=O)O)C(=O)N[C@@H](CC(C)C)C(=O)N[C@@H](CS)C(=O)NCCc1ccccc1	19000
CC(=O)N[C@H](C(=O)N[C@H](C(=O)N1C[C@H](OCc2cccc3ccccc23)C[C@H]1C(=O)N[C@@]1(C(=O)O)C[C@@H]1CCc1ccccc1)C(C)C)C1CCCCC1	90000
CCC[C@@]1(CC(=O)O)OCCc2c1[nH]c1c(C)cc(F)c(C#N)c21	630
O=C(O)[C@H](Cc1ccccc1)N(Cc1cccc(C(F)(F)F)c1)C(=O)c1ccc(Cl)cc1Cl	1700
O=C(CC(O)C(=O)O)c1ccccc1 (stereo not given)	50000
O=C(O)[C@H](Cc1ccccc1)N(Cc1cccc(Cl)c1)C(=O)c1ccc(Cl)cc1Cl	1400
CC[C@@H]1C[C@]1(NC(=O)[C@@H]1C[C@@H](Oc2cccc(-c3ccccc3)c2)CN1C(=O)[C@@H](NC(=O)[C@@H](NC(C)=O)C1CCCCC1)C(C)C)C(=O)O	120
Cc1cn([C@@H]2O[C@H](CO)[C@@H](O)[C@@]2(C)O)c2ncnc(N)c12	34000
CNc1nc(-c2cc(O[C@@H]3C[C@H]4C(=O)N[C@]5(C(=O)O)C[C@H]5/C=C\CCCCC[C@H](NC(=O)OC(C)(C)C)C(=O)N4C3)c3ccc(OC)cc3n2)cs1	6.4
N#Cc1c(Cl)cccc1COc1cccc(C(=O)/C=C(\O)C(=O)O)c1	110
C[C@@]1(O)[C@H](O)[C@@H](CO)O[C@H]1n1ncc2c(N)ncnc21	100000
CC[C@@H]1C[C@]1(NC(=O)[C@@H]1C[C@@H](Oc2cc(-c3ccccc3)nc3ccccc23)CN1C(=O)[C@@H](NC(=O)[C@@H](NC(C)=O)C1CCCCC1)C(C)C)C(=O)O (Ac-[Chg]V[Hyp(2-Ph-quinolin-4-yl)][Acca(2-Et,1R,2R)]-OH)	13
CCCN(NC(=O)[C@@H]1C[C@@H](OCc2ccccc2)CN1C(=O)[C@@H](NC(=O)[C@@H](NC(=O)[C@@H](CCC(=O)O)NC(=O)[C@H](CC(=O)O)NC(C)=O)[C@@H](C)CC)C(C)C)C(=O)N[C@@H](C)c1ccc(Br)cc1 (Ac-D[dE]IV[Hyp](Bn)[azaNva]-X3)	72
O=C(CC(=O)C(=O)O)Cc1ccco1	50000
CC(=O)N[C@@H](CC(=O)O)C(=O)N[C@@H](CCC(=O)O)C(=O)N[C@H](C(=O)N[C@@H](CCC(=O)O)C(=O)N[C@@H](CC1CCCCC1)C(=O)N[C@@H](CS)C(=O)NCCc1ccccc1Cl)C(c1ccccc1)c1ccccc1 (Ac-DE[Dip]E[Cha]C-X1)	2
CNc1nc(-c2cc(O[C@@H]3C[C@H]4C(=O)N[C@]5(C(=O)O)C[C@H]5/C=C\CCCCC[C@H](NC(=O)OC5CCCC5)C(=O)N4C3)c3ccc(OC)cc3n2)cs1	2.5
COc1ccc2c(O[C@@H]3C[C@H]4C(=O)N[C@]5(C(=O)O)C[C@H]5/C=C\CCCCC[C@H](NC(=O)OC5CCCC5)C(=O)N4C3)cc(-n3cccn3)nc2c1	2.2
COc1ccc2c(O[C@@H]3C[C@H]4C(=O)N[C@]5(C(=O)O)C[C@H]5/C=C\CCCCC[C@H](NC(=O)OC5CCCC5)C(=O)N4C3)cc(-c3csc(NC(C)=O)n3)nc2c1	2.5
